The text below walks through data of article PMC8551951 (Biophysical Reviews, 2021).

Converted amounts (≈) assume the structure as drawn. Where two headings read alike, the source gives them in different places.

Series [1] concerns thermal and mechanical sensitivities; RS and NOx levels. Type of series: in vivo, Swiss mice. The conditions noted are these: 1 mg kg-1, intragastric route.
Series [2] concerns C. neoformans (ATCC H99). In words: microbe, parasite or virus in culture. It counts as cell-based. The conditions noted are these: Cryptococcus neoformans.
Series [3] has as its target α-synuclein (Homo sapiens, UniProt P37840). It counts as cell-based, Saccharomyces cerevisiae. The conditions noted are these: 0.1 mM, without fermentation.
The subject of series [4] is Drosophila melanogaster. The conditions noted are these: 48 hours.
For series [5] the following is noted: 2 mg/ml.
Series [6] relates to MV released from growth-plate femurs chondrocytes. It counts as biochemical, chicken.
Series [7] has as its system learning and memory behavior. Type of series: in vivo, Swiss mice. The conditions noted are these: 10mg/kg, intragastrically.
Series [8] has as its target TRPV1 channel heterologously expressed in HEK293 cells (Homo sapiens, UniProt Q8NER1). In words: cell-based. The conditions noted are these: HEK293, read-out: % inhibition of capsaicin-induced TRPV1 currents.
The test system of series [9] is glycated human erythrocyte. It counts as cell-based.
Series [10] concerns K562. It counts as cell-based.
Series [11] concerns the target dihydroorotate dehydrogenase from Schistosoma mansoni (SmDHODH) (Schistosoma mansoni, UniProt G4VFD7).
Series [12] addresses gill V(H+)-ATPase. Type of series: biochemical, Macrobrachium amazonicum. The conditions noted are these: read-out: constant enzyme inhibitor, 25 °C.
Series [13] concerns CE-AρBza serine proteases. It counts as biochemical, Canavalia ensiformis.
Series [14] concerns Leishmania braziliensis old yellow enzyme (LbOYE). It counts as biochemical.
For series [15], the system named is K562 cell line.
In series [16] the test system is S. saprophyticus. It counts as cell-based.
Series [17] deals with IGR39 cells. It counts as cell-based.
Series [18] addresses Ca2+-dependent BK channel (Homo sapiens, UniProt Q12791). Type of series: cell-based.
Series [19] has as its system oral streptococci biofilm. It counts as cell-based, Streptococcus. The conditions noted are these: all species.
In series [20] the target is rat serum albumin (RSA) (Rattus norvegicus, UniProt P02770). It counts as binding. The conditions noted are these: interaction density function method; two cooperative sites.
Series [21] deals with paw edema. The conditions noted are these: in vivo.
Series [22] has as its system inflammation, nociception and oxidative stress. The conditions noted are these: mouse, in vivo.
Series [23] relates to LUCENA cells. Type of series: cell-based.
For series [24], the system named is K562 cells. Type of series: cell-based.

Chain of Ca2+-dependent BK channel (Q12791 whole entry): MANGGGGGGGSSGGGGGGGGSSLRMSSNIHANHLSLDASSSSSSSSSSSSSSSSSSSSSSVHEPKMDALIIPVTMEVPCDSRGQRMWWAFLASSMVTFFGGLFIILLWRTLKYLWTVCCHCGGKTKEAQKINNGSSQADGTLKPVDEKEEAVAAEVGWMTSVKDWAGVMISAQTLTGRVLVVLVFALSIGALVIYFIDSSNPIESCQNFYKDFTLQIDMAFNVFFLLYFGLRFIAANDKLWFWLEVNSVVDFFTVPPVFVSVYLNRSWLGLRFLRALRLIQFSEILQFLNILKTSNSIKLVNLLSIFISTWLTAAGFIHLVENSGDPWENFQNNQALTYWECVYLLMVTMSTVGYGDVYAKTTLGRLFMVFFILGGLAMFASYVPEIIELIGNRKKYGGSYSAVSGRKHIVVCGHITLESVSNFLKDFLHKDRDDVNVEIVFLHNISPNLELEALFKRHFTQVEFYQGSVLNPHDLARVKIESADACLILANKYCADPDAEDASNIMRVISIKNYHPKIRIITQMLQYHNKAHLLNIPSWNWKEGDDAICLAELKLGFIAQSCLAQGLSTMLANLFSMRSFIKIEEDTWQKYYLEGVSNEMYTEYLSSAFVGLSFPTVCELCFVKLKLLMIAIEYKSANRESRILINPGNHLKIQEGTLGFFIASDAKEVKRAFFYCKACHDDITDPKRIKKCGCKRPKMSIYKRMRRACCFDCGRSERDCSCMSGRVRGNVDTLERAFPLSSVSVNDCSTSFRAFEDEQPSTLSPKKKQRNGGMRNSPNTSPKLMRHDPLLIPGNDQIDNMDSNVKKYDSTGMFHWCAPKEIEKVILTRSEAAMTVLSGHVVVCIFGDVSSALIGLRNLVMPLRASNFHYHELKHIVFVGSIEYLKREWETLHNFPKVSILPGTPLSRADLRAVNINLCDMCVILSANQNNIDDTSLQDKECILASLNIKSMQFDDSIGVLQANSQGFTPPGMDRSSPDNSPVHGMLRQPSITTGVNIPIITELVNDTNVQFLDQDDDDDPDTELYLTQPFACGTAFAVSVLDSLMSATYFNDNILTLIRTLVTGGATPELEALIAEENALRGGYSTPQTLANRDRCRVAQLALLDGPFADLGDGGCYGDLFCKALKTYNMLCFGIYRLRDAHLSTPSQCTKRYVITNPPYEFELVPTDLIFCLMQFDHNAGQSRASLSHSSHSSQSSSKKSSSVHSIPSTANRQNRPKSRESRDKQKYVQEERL
Chain of TRPV1 channel heterologously expressed in HEK293 cells (Q8NER1 whole entry): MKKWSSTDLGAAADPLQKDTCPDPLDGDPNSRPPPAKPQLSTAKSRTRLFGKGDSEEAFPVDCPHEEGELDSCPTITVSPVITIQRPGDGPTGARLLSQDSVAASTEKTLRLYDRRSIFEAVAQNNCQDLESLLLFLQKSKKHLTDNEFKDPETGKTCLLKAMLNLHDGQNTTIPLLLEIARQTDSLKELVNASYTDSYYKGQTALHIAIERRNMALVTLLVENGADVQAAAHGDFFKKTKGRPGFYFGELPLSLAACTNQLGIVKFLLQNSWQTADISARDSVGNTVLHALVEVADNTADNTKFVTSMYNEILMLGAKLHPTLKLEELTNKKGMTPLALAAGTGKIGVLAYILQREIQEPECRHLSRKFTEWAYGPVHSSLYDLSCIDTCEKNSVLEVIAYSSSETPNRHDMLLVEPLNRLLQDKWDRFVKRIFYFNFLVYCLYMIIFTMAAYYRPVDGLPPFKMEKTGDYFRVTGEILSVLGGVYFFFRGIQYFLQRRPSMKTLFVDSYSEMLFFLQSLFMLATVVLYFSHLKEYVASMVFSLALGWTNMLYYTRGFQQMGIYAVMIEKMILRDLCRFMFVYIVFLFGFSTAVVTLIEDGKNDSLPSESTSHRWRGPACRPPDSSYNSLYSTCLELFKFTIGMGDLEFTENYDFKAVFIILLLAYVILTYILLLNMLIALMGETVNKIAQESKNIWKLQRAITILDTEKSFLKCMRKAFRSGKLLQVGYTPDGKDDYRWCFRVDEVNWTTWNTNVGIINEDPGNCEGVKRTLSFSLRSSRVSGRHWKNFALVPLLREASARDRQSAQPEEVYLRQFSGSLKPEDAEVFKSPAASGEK
Chain of rat serum albumin (RSA) (P02770 25-608): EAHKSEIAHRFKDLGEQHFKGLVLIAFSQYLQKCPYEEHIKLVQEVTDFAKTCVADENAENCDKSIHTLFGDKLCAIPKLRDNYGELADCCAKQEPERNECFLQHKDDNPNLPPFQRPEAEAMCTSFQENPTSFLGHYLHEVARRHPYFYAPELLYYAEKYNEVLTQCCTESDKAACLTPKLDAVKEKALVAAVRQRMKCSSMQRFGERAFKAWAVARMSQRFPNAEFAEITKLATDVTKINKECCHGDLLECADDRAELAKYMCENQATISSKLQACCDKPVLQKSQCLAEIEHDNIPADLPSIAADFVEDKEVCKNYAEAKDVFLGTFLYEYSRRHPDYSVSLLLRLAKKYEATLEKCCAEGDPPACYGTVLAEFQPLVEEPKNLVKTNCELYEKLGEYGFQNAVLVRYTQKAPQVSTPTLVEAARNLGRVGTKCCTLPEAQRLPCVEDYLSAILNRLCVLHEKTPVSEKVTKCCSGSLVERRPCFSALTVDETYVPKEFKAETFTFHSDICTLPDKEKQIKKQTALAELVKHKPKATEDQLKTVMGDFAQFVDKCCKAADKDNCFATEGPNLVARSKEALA
Chain of dihydroorotate dehydrogenase from Schistosoma mansoni (SmDHODH) (G4VFD7 23-379 limits assumed): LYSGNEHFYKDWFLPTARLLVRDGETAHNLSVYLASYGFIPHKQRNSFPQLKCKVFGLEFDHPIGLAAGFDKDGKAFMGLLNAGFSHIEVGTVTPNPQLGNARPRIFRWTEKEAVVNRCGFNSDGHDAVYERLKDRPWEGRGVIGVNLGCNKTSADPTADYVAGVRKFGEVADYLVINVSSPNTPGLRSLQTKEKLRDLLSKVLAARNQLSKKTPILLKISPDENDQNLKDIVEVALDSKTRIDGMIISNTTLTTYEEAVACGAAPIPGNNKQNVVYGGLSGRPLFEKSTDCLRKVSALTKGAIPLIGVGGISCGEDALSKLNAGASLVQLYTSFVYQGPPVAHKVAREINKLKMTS

With `Clc1ccc2c([Se]c3ccccc3)ccnc2c1` [4-PSQ, 7-Chloro-4-(phenylselanyl) quinoline], in series [1], the hypersensitivity entry is “reversed hypersensitivity induced by OXA and aging”. Further, the “RS and NOx levels” value in series [1] (both ages) is “reduced the RS and NOx levels”. In [2], `CCCSc1ccc2nc(NC(=O)OC)[nH]c2c1` [Albendazole] yielded an MIC of 0.047 to 3.12 µM (≈ 0.0125 to 0.829 µg/mL). Regarding `O=C(/C=C/c1ccc(O)c(O)c1)OCCc1ccccc1` [CAPE, phenethyl ester of caffeic acid], the protein aggregation entry in series [3] is recorded as “did not inhibit”. Turning to `COc1cc2c(c(OC)c1OC)-c1ccc(OC)c(=O)cc1[C@@H](NC(C)=O)CC2` [COL, colchicine], the survival rate entry in series [4] (0.001-0.010 mg/mL) is reported as “did not affect the fly survival rate”. Also, in series [4], the TBARS levels result was “elevated in the 0.0025 mg/mL and 0.005 mg/mL groups”; the “reactive species (RS) levels” value was “increase in RS levels at concentrations of 0.0025 and 0.005 mg/mL”.

In the case of `CC1=C(C(=O)O)N2C(=O)[C@@H](NC(=O)[C@H](N)c3ccccc3)[C@H]2SC1` [Cephalexin], the degradation entry in [5] is listed as “highly sucesptible to degradation”. On to `c1ccc([C@H]2CN3CCSC3=N2)cc1` [Levamisole], for which the “effectiveness of inhibition of MV activity compared with ouabain” value in series [6] is reported as “more effective”. Consider `COc1ccc(Sc2ccc3nsnc3c2)cc1` [MTDZ, 5-((4-methoxyphenyl)thio)benzo[c][1,2,5]thiadiazole], for which the “behavioral changes caused by SCO” value in series [7] is reported as “attenuated the behavioral changes caused by SCO”. What is called inhibition is the drop in the measured response relative to a control, in per cent. Take `CC(C)(O)c1ccccc1CC[C@@H](SCC1(CC(=O)O)CC1)c1cccc(/C=C/c2ccc3ccc(Cl)cc3n2)c1` [Montelukast]: in [8], the inhibition at 0.1 µM worked out at 62 ± 8%. Turning to `CO[C@@H]1[C@@H](OC(N)=O)[C@@H](O)[C@H](Oc2ccc3c(O)c(NC(=O)c4ccc(O)c(CC=C(C)C)c4)c(=O)oc3c2C)OC1(C)C` [Novobiocin], the inhibition at 0.1 µM in series [8] was 60 ± 7%. In the case of `CC(C)c1cccc(C(C)C)c1O` [P, propofol], in series [9], the “deformability index (DI)” value is listed as “decreases” and the “erythrocyte elastic modulus (μ)” value was “significant increase”.

Take `CC(=O)O[C@H]1C[C@@H]2CC[C@@H]3[C@H](CC[C@@]4(C)[C@H]3C[C@H]([N+]3(C)CCCCC3)[C@@H]4OC(C)=O)[C@@]2(C)C[C@@H]1N1CCCCC1` [V, vecuronium]: the “surface viscosity (η)” value in [9] is on record as “increase”.

As for `NC(=O)NC1NC(=O)NC1=O` (centres unmarked) [allantoin], in series [10], the “death caused by cisplatin” value is “reduction”. On to `O=C1C(O)=C([C@H]2CC[C@H](c3ccc(Cl)cc3)CC2)C(=O)c2ccccc21` [atovaquone], for which the “inhibition of SmDHODH” value in series [11] is “in the nanomolar range”. In the case of `CO/C1=C\C(C)=C\[C@@H](C)[C@@H](O)[C@@H](C)C/C(C)=C/C=C/[C@H](OC)[C@@H]([C@@H](C)[C@@H](O)[C@H](C)C2(O)C[C@@H](O)[C@H](C)[C@@H](C(C)C)O2)OC1=O` (some centres unmarked) [bafilomycin], the figures for the Ki in series [12] (Grande river population) and in [12] (Tietê river population) were 21.2 ± 1.3 nM and 35.1 ± 1.1 nM, respectively.

As for `N=C(N)c1ccccc1` [benzamidine], the entries for the “inhibition of CE-AρBza” value in [13] (BTEE as substrate) and in [13] (L-TAME as substrate) were 100% and 77%, respectively. In the case of `CC(C)c1cc2c(c(O)c1O)C[C@@]13CCCC(C)(C)[C@@H]1C[C@@H]2O3` [brussonol], in series [14], the “significant inhibition of LbOYE activity” value was “did not show significant inhibition”. In turn, `COC(=O)Nc1nc2ccc(Sc3ccccc3)cc2[nH]1` [fenbendazole] had an MIC in series [2] of 0.047 to 3.12 µM (≈ 0.0141 to 0.935 µg/mL).

With `COC(=O)Nc1nc2cc(C(=O)c3ccc(F)cc3)ccc2[nH]1` [flubendazole], the MIC in series [2] was 0.047 to 3.12 µM (≈ 0.0147 to 0.979 µg/mL).

On to `COC(=O)Nc1nc2ccc(C(=O)c3ccccc3)cc2[nH]1` [mebendazole], for which the MIC in series [2] was 0.047 to 3.12 µM (≈ 0.0139 to 0.923 µg/mL). As for `CN(C)C(=N)N=C(N)N` [metformin], the interaction with cisplatin result in series [15] is reported as “synergism”.

As for `C[C@@H]1O[C@@H](O[C@H]2C[C@@H](O)[C@]3(CO)[C@H]4[C@H](O)C[C@]5(C)[C@@H](C6=CC(=O)OC6)CC[C@]5(O)[C@@H]4CC[C@]3(O)C2)[C@H](O)[C@H](O)[C@H]1O` [ouabain], the “MV activity in the presence of inhibitor” value in series [6] (31P-NMR and colorimetric techniques) is listed as about 95%. With `CN[C@H](CC(C)C)C(=O)N[C@H]1C(=O)N[C@@H](CC(N)=O)C(=O)N[C@H]2C(=O)N[C@H]3C(=O)N[C@H](C(=O)N[C@H](C(=O)O)c4cc(O)cc(O)c4-c4cc3ccc4O)[C@H](O)c3ccc(c(Cl)c3)Oc3cc2cc(c3O[C@@H]2O[C@H](CO)[C@@H](O)[C@H](O)[C@H]2O[C@H]2C[C@](C)(N)[C@H](O)[C@H](C)O2)Oc2ccc(cc2Cl)[C@H]1O` [vancomycin], the “reduction of the MIC value in combination” value in series [16] turned out to be 4 times. For DCPIB, the “Ca2+ influx” value in series [17] is “induces a rapid Ca2+ influx”. For the same molecule, the currents result in series [18] (IGR37 cells) is on record as “not in IGR37 cells”; in series [18] (Panc1, MiaPaca2 and IGR39 cells) it was “dramatic increase of currents”. Consider N-acetylcysteine [NAC], for which the “concentration shown to inhibit biofilm formation” value in series [19] is given as 12.5 mg/mL.

As for Piperlongumine [PPL], in [20], the binding constants entry was “moderate binding constants”.

In the case of Rhodium chloride [RhCl3], in series [21], the paw edema result is “able to reduce paw edema”. Consider “Se-[(2,2-dimethyl-1,3-dioxolan-4-yl) methyl] 4-chlorobenzoselenolate [Se-DMC]”, for which, in series [22], the NPSH content entry is recorded as “No alteration” and the “RS levels in paw” value is given as “reduced the RS levels”. As to sodium selenite [Na2SeO3], the “reduction in cell number” value in series [23] (1000 μM, 48 hours) was 66%. For the same molecule, the “mitochondrial membrane potential (JC-1)” value was “only at concentrations of 100 μM and 1000 μM” in [23] (24 hours); “significant reduction for all concentration” in series [24] (24 hours). The proliferation result in series [24] is on record as “significant reduction”. Moreover, in series [24] (48 hours), the “cell viability (MTT)” value was “significant reduced only in 100 μM or 1000 μM”.
